This passage reports inhibition and EC50 results from US20100029643A1 (ASTRAZENECA AB, priority 2006, published 2010).

SMILES strings stand for the structures.

The assay has as its target T1, Edg-1/S1P1 receptor (Homo sapiens, UniProt P21453).
T1 construct: expressed in transfected cells; host or cells: human osteogenic sarcoma U2OS cells: Edg-1 Transfluor U2OS WT Clone #37 (assay I), Edg-1 Transfluor U2OS Clone #3 (assay II)
The assay is described as follows: In vitro cell based receptor activation assay - Transfluor assay (assay I or II; beta-arrestin GFP relocalization after S1P stimulation). As to conditions: for inhibition at 3.7 µM: at 3.70 μM (titrated from top concentration 100 μM); for inhibition at 3.5 µM: at 3.50 μM (titrated from top concentration 10 μM); for inhibition at 3.3 µM: at 3.30 μM (run with this as top concentration). The source says: The following assays can be used to measure the effects of the compounds of the present invention as S1P1/Edg1 inhibitors.
I. In Vitro Cell Based Receptor Activation Assay-Transfluor Assay
This cell-based assay was designed to assess the ability of small molecule antagonists to inhibit activation of the GPCR S1P1 in the presence of its cognate ligand S1P. The assay used technology initially developed by Norak Biosciences (Xsira Pharmaceutical) and presently owned by Molecular Devices. A human osteogenic sarcoma (U2OS) cell line overexpressing the Edg-1/S1P1) receptor as well as a beta-arrestin/green fluorescent protein (GFP) construct hereafter termed Edg-1 Transfluor U2OS WT Clone #37 was employed.
Using a high content screening approach (Cellomics Arrayscan), receptor activity was measured by assessment of the relocalization of beta-arrestin GFP in response to stimulation of Edg-1 by SIP. Specifically, Edg-1 Transfluor U2OS WT Clone #37 cells were plated at a density of 6250 cells in 40 μL medium per well in 384 well plastic bottomed microtiter plates (BD Falcon) and incubated overnight at 37° C./5% CO2. Prior to screening, compounds were dissolved in 100% dimethyl sulfoxide (DMSO) to a final stock concentration of 10 mM. Compounds were then serially diluted at 30× final concentration in Edg-1 Transfluor cell growth medium containing […] using the Tecan Genesis instrument. These 30× plates were then diluted to 6× final concentration with Edg-1 Transfluor growth medium just prior to dosing. Cells were then dosed with 10 μL per well of 6× compound dilutions or 6% DMSO and pre-incubated for 15 minutes at room temperature. Cell plates were dosed with 10 μL per well 6× S1P Edg-1 Transfluor growth medium, then incubated for 45 minutes at 37° C./5% CO2. Final concentration in the well of DMSO was 1%, compound was IX (3-fold, 9 point IC50 dilutions starting at 100 μM final concentration), and either 375 nM or […] SIP ligand. Cell plates were then fixed by adding 50 μL per well of 5% formaldehyde in 1× Dulbecco's phosphate buffered saline (DPBS) directly and incubating for 30 minutes at room temperature in darkness. Fixative was removed and replaced with 50 μL per well of 1×DPBS, after which cells were stained with 10 μg/mL final concentration of Hoechst 33342 (Molecular Probes) for 15 minutes at room temperature in darkness. Stain was then removed from the plates and replaced with 50 μL per well of 1×DPBS using the BioTek ExL405 plate washer. Plates were then sealed and analysed on the Cellomics Arrayscan using the GPCR signalling algorithm. EC50 values were then calculated using IDBS ActivityBase software.
II. In Vitro Cell Based Receptor Activation Assay-Transfluor Assay
This cell-based assay was designed to assess the ability of small molecule antagonists to inhibit activation of the GPCR S1P1 in the presence of its cognate ligand S1P. The assay used technology initially developed by Norak Biosciences (Xsira Pharmaceutical) and presently owned by Molecular Devices (MDS Analytical Technologies). A human osteogenic sarcoma (U2OS) cell line overexpressing the Edg-1/S1P1) receptor as well as a beta-arrestin/green fluorescent protein (GFP) construct hereafter termed Edg-1 Transfluor U2OS Clone #3 was employed.
Using a high content screening approach (Molecular Devices Image Express), receptor activity was measured by assessment of the relocalization of beta-aiTestin GFP in response to stimulation of Edg-1 by S1P. Specifically, Edg-1 Transfluor U2OS Clone #3 cells were plated at a density of 6250 cells in 44 μL medium per well in 384 well plastic bottomed microtiter plates (BD Falcon) and incubated overnight at 37° C./5% CO2. Prior to screening, compounds were dissolved in 100% dimethyl sulfoxide (DMSO) to a final stock concentration of 10 mM. Compounds were then serially diluted at 10× final concentration in Edg-1 Transfluor cell growth medium containing 6% DMSO using the BioMek instrument. […]

T1 sequence (P21453 whole entry): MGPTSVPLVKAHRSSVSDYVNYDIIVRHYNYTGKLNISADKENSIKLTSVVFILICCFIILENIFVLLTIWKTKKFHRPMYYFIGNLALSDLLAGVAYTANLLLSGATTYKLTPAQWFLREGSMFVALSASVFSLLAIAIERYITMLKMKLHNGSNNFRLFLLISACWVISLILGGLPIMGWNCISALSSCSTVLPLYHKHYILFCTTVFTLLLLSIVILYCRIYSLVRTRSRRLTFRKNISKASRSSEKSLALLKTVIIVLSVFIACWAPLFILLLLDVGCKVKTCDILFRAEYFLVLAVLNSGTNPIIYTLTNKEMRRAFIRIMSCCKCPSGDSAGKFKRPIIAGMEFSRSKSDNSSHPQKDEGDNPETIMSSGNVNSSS

For `CCn1c([C@@H](C)NS(=O)(=O)c2ccc(Cl)cc2)nc2cc(F)cc(F)c21` [Example 57, 4-Chloro-N-[(1R)-1-(1-ethyl-5,7-difluoro-1H-benzimidazol-2-yl)ethyl]benzenesulfonamide], the inhibition (commonly the share of the control response that was lost under treatment) at 3.7 µM came to 84.5%.
`CCn1c([C@@H](C)NS(=O)(=O)c2ccc(Cl)cc2)nc2cc(C)c(C)cc21` [Example 24, 4-Chloro-N-[(1R)-1-(1-ethyl-5,6-dimethyl-1H-benzimidazol-2-yl)ethyl]benzenesulfonamide] had an inhibition at 3.5 µM of 73%.
The same measure, in the same setting: under `CCn1c([C@@H](C)NS(=O)(=O)c2ccc(C)cc2)nc2ccc(C(F)(F)F)cc21` [Example 115, (R)-N-(1-(1-Ethyl-6-(trifluoromethyl)-1H-benzo[d]imidazol-2-yl)ethyl)-4-methylbenzenesulfonamide] stands 85.3%; under `CCn1c([C@@H](C)NS(=O)(=O)c2ccc(C#N)cc2)nc2cnc(OC)cc21` [Example 150, (R)-4-Cyano-N-(1-(1-ethyl-6-methoxy-1H-imidazo[4,5-c]pyridin-2-yl)ethyl)benzenesulfonamide], 91.6%.
Take `CCn1c([C@@H](C)NS(=O)(=O)c2ccc(Cl)cc2)nc2ccc(CN3CCOCC3)cc21` [Example 75, 4-Chloro-N-{(1R)-1-[1-ethyl-6-(morpholin-4-ylmethyl)-1H-benzimidazol-2-yl]ethyl}benzenesulfonamide]: the inhibition at 3.7 µM was found to be 37.2%.
The compound `CCn1c([C@@H](C)NS(=O)(=O)c2ccc(NN)nc2)nc2ccc(C(F)(F)F)cc21` [Example 168, (R)—N-(1-(1-ethyl-6-(trifluoromethyl)-1H-benzo[d]imidazol-2-yl)ethyl)-6-hydrazinylpyridine-3-sulfonamide] had an inhibition at 3.5 µM of 77.1%.
The same measure, in the same setting: in the case of `CCn1c([C@@H](C)NS(=O)(=O)c2ccc(Cl)cc2)nc2cc3c(cc21)OCO3` [Example 63, (R)-4-Chloro-N-[1-(5-Ethyl-5H-[1,3]dioxolo[4′,5′;4,5]-benzo[1,2-d]imidazol-6-yl)-ethyl]benzenesulfonamide] it was 93.9%; in that of `CCn1c([C@@H](C)NS(=O)(=O)c2cc(C)nc(C)c2)nc2ccc(C(F)(F)F)cc21` [Example 160, (R)-N-(1-(1-Ethyl-6-(trifluoromethyl)-1H-benzo[d]imidazol-2-yl)ethyl)-2,6-dimethylpyridine-4-sulfonamide], 90.3%.
The same measure, in the same setting: in the case of `CCn1c([C@@H](C)NS(=O)(=O)c2ccc3c(c2)OCO3)nc2ccc(C(F)(F)F)cc21` [Example 45, N-{(1R)-1-[1-Ethyl-6-(trifluoromethyl)-1H-benzimidazol-2-yl]ethyl}-1,3-benzodioxole-5-sulfonamide] it was 96%.
Same read-out and setting: in the case of `CCn1c([C@@H](C)NS(=O)(=O)c2ccc(C#N)cc2)nc2cnc(C(F)(F)F)cc21` [Example 146, (R)-4-Cyano-N-(1-(1-ethyl-6-(trifluoromethyl)-1H-imidazo[4,5-c]pyridin-2-yl)ethyl)benzenesulfonamide] it was 91.8%.
In turn, `CCn1c(C(Cc2ccc(F)cc2)NS(=O)(=O)c2ccc(Cl)cc2)nc2ccccc21` (stereo not drawn) [Example 6] had an inhibition at 3.7 µM of 77.7%.
Regarding `CCn1c([C@@H](C)NS(=O)(=O)c2ccc(C#N)nc2)nc2ncc(C(F)(F)F)cc21` [Example 181, 6-Cyano-N-{(1R)-1-[1-ethyl-6-(trifluoromethyl)-1H-imidazo[4,5-b]pyridin-2-yl]ethyl}pyridine-3-sulfonamide], the inhibition at 3.5 µM amounted to 90.6%.
The compound `CCn1c([C@@H](C)NS(=O)(=O)c2c(C)noc2C)nc2ccc(C(F)(F)F)cc21` [Example 37, N-{(1R)-1-[1-Ethyl-6-(trifluoromethyl)-1H-benzimidazol-2-yl]ethyl}-3,5-dimethylisoxazole-4-sulfonamide] gave an inhibition at 3.7 µM of 58.3%.
Same read-out and setting: in the case of `CCn1c([C@@H](C)NS(=O)(=O)c2ccc(Cl)cc2)nc2ccc(C(=O)N(C)C)cc21` (stereo in doubt) [Example 72, 2-(1-{[(4-Chlorophenyl)sulfonyl]amino}-ethyl)-1-ethyl-N,N-dimethyl-1H-benzimidazole-6-carboxamide] it was 21.7%.
For the compound `CCn1c([C@@H](C)NS(=O)(=O)c2ccccc2)nc2ccc(C(F)(F)F)cc21` [Example 50, N-{(1R)-1-[1-Ethyl-6-(trifluoromethyl)-1H-benzimidazol-2-yl]ethyl}benzenesulfonamide], the inhibition at 3.3 µM is 92.1%.
Compound `CC(NS(=O)(=O)c1ccc(Cl)cc1)c1nc2ccccc2n1C` (stereo not drawn) [Example 8, 4-Chloro-N-[1-(1-methyl-1H-benzimidazol-2-yl)ethyl]-benzenesulfonamide] displayed an inhibition at 3.7 µM of 91.2%.
Regarding `CCn1c([C@@H](C)NS(=O)(=O)c2ccsc2)nc2ccc(C(F)(F)F)cc21` [Example 47, N-{(1R)-1-[1-Ethyl-6-(trifluoromethyl)-1H-benzimidazol-2-yl]ethyl}thiophene-3-sulfonamide], testing at 3.7 µM gave an inhibition of 89.6%.
Compound `CCn1c(C2(NS(=O)(=O)c3ccc(F)cc3)CCC2)nc2ccc(C(F)(F)F)cc21` [Example 143, N-[1-(1-Ethyl-6-trifluoromethyl-1H-benzoimidazol-2-yl)-cyclobutyl]-4-fluoro-benzenesulfonamide] showed an inhibition at 3.5 µM of 84.7%.
Take `CC(C)Cn1c(C(C)NS(=O)(=O)c2ccc(Cl)cc2)nc2ccccc21` (stereo not drawn) [Example 19, 4-Chloro-N-[1-(1-isobutyl-1H-benzimidazol-2-yl)ethyl]-benzenesulfonamide]: the inhibition at 3.7 µM stood at 16.4%. Moreover, the EC50 (usually the midpoint of the concentration-response curve) (one or the other of the two Transfluor assays, Edg-1 Transfluor U2OS cells, S1P ligand) was determined as 10.3 µM.
As to `CCn1c([C@@H](C)NS(=O)(=O)c2ccc(Cl)cc2)nc2cnc(OC)cc21` [Example 144, (R)-4-Chloro-N-(1-(1-ethyl-6-methoxy-1H-imidazo[4,5-c]pyridin-2-yl)ethyl)benzenesulfonamide], at 3.5 µM the inhibition was 90.7%.
As for `CCn1c([C@@H](C)NS(=O)(=O)c2ccc(C#N)cc2)nc2cnc(C3CC3)cc21` (stereo in doubt) [Example 183, 4-Cyano-N-[1-(6-cyclopropyl-1-ethyl-1H-imidazo[4,5-c]pyridin-2-yl)-ethyl]-benzenesulfonamide], the inhibition at 3.5 µM is 83.4%.
The compound `CCCn1c(C(C)NS(=O)(=O)c2ccc(Cl)cc2)nc2ccccc21` (stereo not drawn) [Example 17, 4-Chloro-N-[1-(1-propyl-1H-benzimidazol-2-yl)ethyl]-benzenesulfonamide] showed an inhibition at 3.3 µM of 92.8%.
With `CCn1c([C@@H](C)NS(=O)(=O)c2ccc(Cl)cc2)nc2cc(OC(F)(F)F)ccc21` [Example 64, 4-Chloro-N-{(1R)-1-[1-ethyl-5-(trifluoromethoxy)-1H-benzimidazol-2-yl]ethyl}benzenesulfonamide], the inhibition at 3.7 µM came out at 50.6%.
`CCn1c(C(Cc2ccccc2)NS(=O)(=O)c2ccc(Cl)cc2)nc2ccccc21` (stereo not drawn) [Example 5, 4-Chloro-N-[1-(1-ethyl-1H-benzimidazol-2-yl)-2-phenyl-ethyl]benzenesulfonamide] yielded an inhibition at 3.7 µM of 73.2%.
In the case of `CCn1c([C@@H](C)NS(=O)(=O)C2CC2)nc2ccc(C(F)(F)F)cc21` [Example 38, N-{(1R)-1-[1-Ethyl-6-(trifluoromethyl)-1H-benz-imidazol-2-yl]ethyl}cyclo-propanesulfonamide], the inhibition at 3.7 µM was found to be 35.1%.
`CCn1c([C@@H](C)NS(=O)(=O)c2cccnc2)nc2ccc(C(F)(F)F)cc21` [Example 126, (R)—N-(1-(1-ethyl-6-(trifluoromethyl)-1H-benzo[d]imidazol-2-yl)ethyl)pyridine-3-sulfonamide] displayed an inhibition at 3.5 µM of 92.8%.
